Results reported in patent publication US11306063B2, “Heterocyclic naphthoquinones derivatives for use in the treatment of cancers including Cushing disease” (Commissariat a l'Energie Atomique et aux Energies …, priority 2016, dated 2022).
Read-outs that look alike come from different tables or passages of the source.

Assays:
Assay type in all cases: biochemical
[1] = target: T1, USP2 full length (USP2^FL) (Homo sapiens, UniProt O75604); assay: Inhibition of Ub-AMC hydrolysis by USP2 full length; details: Ub-AMC at 1 μM, Table 1a; for inhibition at 1 µM: 1 μM compound; for inhibition at 5 µM: 5 μM compound; for inhibition at 25 µM: 25 μM compound; for inhibition at 50 µM: 50 μM compound
T1 construct: purchased BioSciences 80352
T1 sequence (O75604 1-605): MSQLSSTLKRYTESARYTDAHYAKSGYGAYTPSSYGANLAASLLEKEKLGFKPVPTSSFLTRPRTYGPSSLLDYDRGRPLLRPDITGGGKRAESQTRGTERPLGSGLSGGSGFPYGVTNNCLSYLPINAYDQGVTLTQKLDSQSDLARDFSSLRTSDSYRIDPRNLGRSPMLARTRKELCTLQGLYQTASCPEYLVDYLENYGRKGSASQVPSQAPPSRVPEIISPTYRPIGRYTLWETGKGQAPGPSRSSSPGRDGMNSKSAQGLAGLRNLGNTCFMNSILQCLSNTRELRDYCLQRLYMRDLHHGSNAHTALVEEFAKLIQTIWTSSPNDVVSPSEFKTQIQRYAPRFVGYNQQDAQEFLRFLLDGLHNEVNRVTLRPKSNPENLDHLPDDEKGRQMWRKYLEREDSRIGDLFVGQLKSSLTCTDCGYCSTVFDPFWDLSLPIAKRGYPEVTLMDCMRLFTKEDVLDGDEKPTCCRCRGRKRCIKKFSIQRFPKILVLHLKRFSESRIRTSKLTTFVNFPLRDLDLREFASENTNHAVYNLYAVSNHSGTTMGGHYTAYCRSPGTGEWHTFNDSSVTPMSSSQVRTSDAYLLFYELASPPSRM
Protocol: (§1) Enzymatic assay was performed in a HEPES buffer (50 mM pH7.6 1 mM DTT, 2% glycerol, 0.5 mM EDTA) or in a Tris buffer (40 mM pH7.4 1 mM DTT, 5% glycerol, 0.05 mg/ml BSA) respectively, following manufacturer's instructions. Compounds were added to the reaction mixture just prior to the substrate. The enzymatic reaction kinetics was monitored through the apparition of fluorescence due to the hydrolysis of the peptidyl Ub-AMC or Ub-Rho bound over 20 or 30 minutes.

[2] = target: T2, USP8^CD (purified catalytic domain of USP8) (Homo sapiens, UniProt P40818); assay: Inhibition of purified USP8^CD enzymatic activity (Ub-AMC or Ub-Rho substrate); details: for inhibition at 1 µM: 1 μM compound
T2 construct: the purified catalytic domain of USP8 (USP8^CD, in-house purified); made in house; host or cells: E. coli BL21 Gold
T2 sequence (P40818 777-1109 limits assumed): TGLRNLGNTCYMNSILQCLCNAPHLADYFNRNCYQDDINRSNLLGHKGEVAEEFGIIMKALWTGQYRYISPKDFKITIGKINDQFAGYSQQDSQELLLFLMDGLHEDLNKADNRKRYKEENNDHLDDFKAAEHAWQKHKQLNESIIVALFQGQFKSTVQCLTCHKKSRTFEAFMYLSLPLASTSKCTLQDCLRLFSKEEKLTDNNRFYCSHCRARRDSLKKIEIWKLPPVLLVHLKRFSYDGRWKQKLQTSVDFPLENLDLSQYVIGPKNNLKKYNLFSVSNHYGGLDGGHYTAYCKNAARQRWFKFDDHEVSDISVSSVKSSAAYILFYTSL
Protocol: (§2) USP2CD or USP8CD were expressed in E. coli BL21 Gold. Cells were grown in LB Miller to mid-log phase and induced by addition of 0.5 mM IPTG for USP2CD for 5 h at 20° C., while 1 mM IPTG was added for USP8CD for 3 h at 37° C. Then, cells were harvested and frozen at −80° C.
For His-tagged USP8CD, cells were resuspended in buffer A (50 mM TRIS pH 8.0, 500 mM NaCl, 2 mM Imidazole) and lysed using a sonicator. The lysate was clarified by centrifugation and applied to Ni Sepharose6 Fast Flow resin (GE Healthcare). The resin was sequentially washed first with buffer A containing 10 mM Imidazole then with buffer A containing 20 mM Imidazole, and finally with buffer A containing 50 mM Imidazole. Protein sample was eluted from the resin using buffer A containing 300 mM Imidazole. The eluted protein was buffer exchanged by gel-filtration on a Superdex 200 10/300 GL column (GE Healthcare) equilibrated in Buffer B (20 mM HEPES pH 7.5, 300 mM NaCl, 2 mM dithiothreitol (DTT)).
as §1
(§3) Medium value out of duplicates is reported.

[3] = target: T3, USP2^CD (purified catalytic domain of USP2) (Homo sapiens, UniProt O75604); assay: Inhibition of purified USP2^CD enzymatic activity (Ub-AMC or Ub-Rho substrate); details: for inhibition at 1 µM: 1 μM compound; for inhibition at 5 µM: 5 μM compound
T3 construct: The purified catalytic domain of USP2 (USP2^CD, in-house purified); His; made in house; host or cells: E. coli BL21 Gold
T3 sequence (O75604 267-599 limits assumed): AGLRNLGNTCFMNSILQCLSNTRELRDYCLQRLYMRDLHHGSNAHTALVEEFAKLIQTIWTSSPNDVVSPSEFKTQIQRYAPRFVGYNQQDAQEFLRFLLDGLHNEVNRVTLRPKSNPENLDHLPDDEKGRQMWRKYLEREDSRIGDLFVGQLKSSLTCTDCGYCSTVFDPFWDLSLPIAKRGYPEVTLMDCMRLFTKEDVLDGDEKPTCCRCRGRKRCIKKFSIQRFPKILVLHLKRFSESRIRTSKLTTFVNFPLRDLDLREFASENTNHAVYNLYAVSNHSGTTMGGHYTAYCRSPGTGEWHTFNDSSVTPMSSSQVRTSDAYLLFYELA
Protocol: as §2
For His-tagged USP2CD, cells were resuspended in buffer C (10 mM TRIS pH 8.0, 100 mM NaCl, 10 mM Imidazole) and lysed using a sonicator. The lysate was clarified by centrifugation and applied to Ni Sepharose6 Fast Flow resin (GE Healthcare). The resin was sequentially washed with buffer C, then with buffer C containing 50 mM Imidazole. Protein sample was eluted from the resin using buffer C containing 250 mM Imidazole. The eluted protein was buffer exchanged by gel-filtration on a Superdex 200 10/300 GL column (GE Healthcare) equilibrated in Buffer D (15 mM Bis-TRIS pH 6.0, 100 mM NaCl, 1 mM dithiothreitol (DTT)).
as §1, §3

[4] = 0.1 μM compound, Ub-AMC at 1 μM, Table 1a
[5] = 0.5 μM compound, Ub-AMC at 1 μM, Table 1a
[6] = 5 μM compound, Ub-AMC at 1 μM, Table 1a
[7] = 25 μM compound, Ub-AMC at 1 μM, Table 1a
[8] = 50 μM compound, Ub-AMC at 1 μM, Table 1a
[9] = Ub-AMC substrate at 1 μM, Table 2b, read-out: IC50 USP8 CD
[10] = Ub-AMC substrate at 1 μM, Table 2b, read-out: IC50 USP2 CD

Question: Which results are given for `O=C1c2ccccc2C(=O)c2nc(CCl)c(CCl)nc21` [PCR8146]?
Answer: inhibition at 1 µM [1]: 30%; inhibition at 5 µM [1]: 50%; inhibition at 25 µM [1]: 89%; inhibition at 50 µM [1]: 99%; USP8^CD % inhibition [2, 4]: 11%; USP8^CD % inhibition [2, 5]: 35%; inhibition at 1 µM ([2]; Ub-AMC at 1 μM, Table 1a): 6%; USP8^CD % inhibition [2, 6]: 43%; USP8^CD % inhibition [2, 7]: 90%; USP8^CD % inhibition [2, 8]: 100%; IC50 [2, 9]: 2.1 µM; IC50 [3, 10]: 6 µM

Question: With `O=C1c2ccccc2C(=O)c2nc(CS(=O)(=O)c3ccc4c(c3)OCCO4)c(CS(=O)(=O)c3ccc4c(c3)OCCO4)nc21` [OVM19] as the compound, how does the inhibition at 0.01 µM ([2]; 0.01 μM compound, Table 1d) read?
Answer: -22%

Question: And the inhibition at 0.05 µM ([2]; 0.05 μM compound, Table 1d)?
Answer: -5%

Question: And the inhibition at 0.1 µM ([2]; 0.1 μM compound, Table 1d)?
Answer: -9%

Question: And the inhibition at 0.5 µM ([2]; 0.5 μM compound, Table 1d)?
Answer: 17%

Question: And the inhibition at 1 µM ([2]; Table 1b)?
Answer: 53%

Question: And the inhibition at 1 µM ([2]; Table 1d)?
Answer: 44%

Question: What about the inhibition at 5 µM ([2]; 5 μM compound, Table 1b) of the same compound?
Answer: 61%

Question: And the inhibition at 5 µM ([2]; 5 μM compound, Table 1d)?
Answer: 46%

Question: And the inhibition at 10 µM ([2]; 10 μM compound, Table 1d)?
Answer: 54%

Question: What about the inhibition at 25 µM ([2]; 25 μM compound, Table 1b) of the same compound?
Answer: 76%

Question: And the inhibition at 50 µM ([2]; 50 μM compound, Table 1b)?
Answer: 77%

Question: What about the IC50 [2, 9] of the same compound?
Answer: 7.5 µM

Question: And the inhibition at 0.01 µM ([3]; 0.01 μM compound, Table 1c)?
Answer: -19%

Question: What about the inhibition at 0.05 µM ([3]; 0.05 μM compound, Table 1c) of the same compound?
Answer: -14%

Question: What about the inhibition at 0.1 µM ([3]; 0.1 μM compound, Table 1c) of the same compound?
Answer: 13%

Question: And the inhibition at 0.5 µM ([3]; 0.5 μM compound, Table 1c)?
Answer: -1%

Question: What about the inhibition at 1 µM ([3]; Table 1b) of the same compound?
Answer: 20%

Question: And the inhibition at 1 µM ([3]; Table 1c)?
Answer: 9%

Question: And the inhibition at 5 µM ([3]; Table 1b)?
Answer: 25%

Question: And the inhibition at 5 µM ([3]; Table 1c)?
Answer: -3%

Question: What about the inhibition at 10 µM ([3]; 10 μM compound, Table 1c) of the same compound?
Answer: 11%

Question: What about the inhibition at 25 µM ([3]; 25 μM compound, Table 1b) of the same compound?
Answer: 21%

Question: What about the inhibition at 50 µM ([3]; 50 μM compound, Table 1b) of the same compound?
Answer: 18%

Question: And the IC50 [3, 10]?
Answer: > 10 µM

Question: `Cc1cc(C)c(S(=O)(=O)Cc2nc3c(nc2CS(=O)(=O)c2c(C)cc(C)cc2C)C(=O)c2ccccc2C3=O)c(C)c1` [PCR7996] was tested. Which inhibition at 1 µM [1] did it give?
Answer: 25%

Question: And the inhibition at 5 µM [1]?
Answer: 51%

Question: And the inhibition at 25 µM [1]?
Answer: 85%

Question: What about the inhibition at 50 µM [1] of the same compound?
Answer: 95%

Question: What about the inhibition at 1 µM ([2]; Ub-AMC at 1 μM, Table 1a) of the same compound?
Answer: 10%

Question: What about the “USP8^CD % inhibition” value [2, 6] of the same compound?
Answer: 70%

Question: What about the “USP8^CD % inhibition” value [2, 7] of the same compound?
Answer: 100%

Question: And the “USP8^CD % inhibition” value [2, 8]?
Answer: 100%

Question: Which inhibition at 1 µM [1] does the source give for `CC/C=C/c1nc2c(nc1/C=C/CC)C(=O)c1ccccc1C2=O` [PCR8156] here?
Answer: 0%

Question: And the inhibition at 5 µM [1]?
Answer: 28%

Question: What about the inhibition at 25 µM [1] of the same compound?
Answer: 58%

Question: And the inhibition at 50 µM [1]?
Answer: 94%

Question: What about the “USP8^CD % inhibition” value [2, 4] of the same compound?
Answer: 6%

Question: What about the “USP8^CD % inhibition” value [2, 5] of the same compound?
Answer: 25%

Question: What about the inhibition at 1 µM ([2]; Ub-AMC at 1 μM, Table 1a) of the same compound?
Answer: 7%

Question: What about the “USP8^CD % inhibition” value [2, 6] of the same compound?
Answer: 43%

Question: What about the “USP8^CD % inhibition” value [2, 7] of the same compound?
Answer: 100%

Question: And the “USP8^CD % inhibition” value [2, 8]?
Answer: 86%

Question: For `O=C1c2ccccc2C(=O)c2nc(CS(=O)(=O)c3ccc([N+](=O)[O-])cc3)c(CS(=O)(=O)c3ccc([N+](=O)[O-])cc3)nc21` [PCR7991], which inhibition at 1 µM [1] is on record?
Answer: 46%

Question: What about the inhibition at 5 µM [1] of the same compound?
Answer: 79%

Question: And the inhibition at 25 µM [1]?
Answer: 94%

Question: And the inhibition at 50 µM [1]?
Answer: 93%

Question: What about the “USP8^CD % inhibition” value [2, 4] of the same compound?
Answer: 42%

Question: What about the “USP8^CD % inhibition” value [2, 5] of the same compound?
Answer: 97%

Question: What about the inhibition at 1 µM ([2]; Ub-AMC at 1 μM, Table 1a) of the same compound?
Answer: 98%

Question: What about the IC50 ([2]; Ub-Rhodamine substrate, Table 2a, read-out: IC50 against purified USP8^CD) of the same compound?
Answer: 0.05 µM

Question: And the IC50 ([3]; Ub-Rhodamine substrate, Table 2a, read-out: IC50 against purified USP2^CD)?
Answer: 1.7 µM
